Reference: ChEMBL document CHEMBL1135966, “New synthetic analogues of N-acyl homoserine lactones as agonists or antagonists of transcriptional regulators involved in bacterial quorum sensing” (Bioorg Med Chem Lett, 2002)

What follows are molecules tested on Aliivibrio fischeri (assay: Concentration required for 50% inhibition of 3-oxo-C6-HSL-induced luminescence of the biosensor strain).

Structure (SMILES)	IC50
O=C(CCCc1ccccc1)NC1CCOC1=O (centres undefined)	2000 nM
O=C(CSCc1ccccc1)NC1CCOC1=O (centres undefined)	2000 nM
O=C(CC(=O)NC1CCOC1=O)Cc1ccccc1 (centres undefined)	2000 nM
O=C(COCc1ccccc1)NC1CCOC1=O (centres undefined)	3000 nM
O=C(CC(=O)NC1CCOC1=O)Cc1cccc(Cl)c1 (centres undefined)	4000 nM
CCCC(=O)CC(=O)NC1CCOC1=O (centres undefined)	200 nM
CC(C)(C)CC(=O)CC(=O)NC1CCOC1=O (centres undefined)	15000 nM
O=C(CC(=O)NC1CCOC1=O)Cc1ccc(F)cc1 (centres undefined)	4000 nM
O=C(CCCC1CCCCC1)NC1CCOC1=O (centres undefined)	> 6000 nM
O=C(CC(=O)NC1CCOC1=O)Cc1ccc(Cl)cc1 (centres undefined)	3000 nM
O=C(CC(=O)NC1CCOC1=O)CC1CCCC1 (centres undefined)	250 nM
CCCCCC(=O)NC1CCOC1=O (centres undefined)	> 9000 nM
CC(C)CC(=O)CC(=O)NC1CCOC1=O (centres undefined)	500 nM
O=C(CC(=O)NC1CCOC1=O)Cc1ccc(C(F)(F)F)cc1 (centres undefined)	10000 nM
O=C(CC(=O)NC1CCOC1=O)CC1CCCCC1 (centres undefined)	1100 nM
O=C(CC(=O)NC1CCOC1=O)Cc1ccc(Br)cc1 (centres undefined)	2000 nM
O=C(CC(=O)NC1CCOC1=O)Cc1ccccc1Cl (centres undefined)	6000 nM
COc1ccc(CC(=O)CC(=O)NC2CCOC2=O)cc1 (centres undefined)	3000 nM
Cc1ccc(CC(=O)CC(=O)NC2CCOC2=O)cc1 (centres undefined)	4000 nM
